Data from patent publication US8128967B2, “Polyphenol coxib combinations and methods” (Mitsui Norin Co., Ltd., priority 2005, dated 2012).
Several values for one entry are separate records, joined by “and”; a condition that tells them apart may be missing. Equal entries are not always repeated.

Assays:
[1] = system: cisplatin-induced lung tumors; assay: Experiment 1: Celecoxib with EGCg or Polyphenon E on cisplatin-induced lung tumor incidence and multiplicity; type: in vivo, A/J mice; details: for INCIDENCE: CDDP control 0.9; for MULTIPLICITY: CDDP control 2.2
Experimental: Similarly, CDDP+Cox (number)+Polyphenon E refers to animals treated with Cisplatin, Polyphenon E, and Celecoxib. Each group of animals had 10 mice.
As control, A/J mice were treated with CDDP using standard protocols well known in the art and as further described below.
Treatment with EGCg alone (see below) was performed in the animals of group 2. […] Low-dose and high-dose effects of Celecoxib were tested in groups 3 and 4 in which the COX-2 inhibitor was mixed with the diet at a concentration of either 150 ppm or 1,500 ppm as indicated by the numbers in parentheses (see below).
The effect of EGCg in combination with high- and low-dose COX-2 inhibitor was tested in groups 5 and 6 (see below). […] For these experiments, EGCg was dissolved in drinking water at 0.1% (wt/vol) concentration.
The effect of Polyphenon E in combination with high- and low-dose COX-2 inhibitor was tested in groups 7 and 8 (see below). […] For these experiments, Polyphenon E was dissolved in drinking water at 0.17% concentration.

[2] = system: cisplatin-induced lung tumors; assay: Experiment 2: celecoxib with EGCG or polyphenon E on cisplatin-induced lung tumor incidence and multiplicity; type: in vivo, female A/J mice; details: 0.1% EGCG or 0.17% polyphenon E in drinking water where combined; for INCIDENCE: killed at 26 weeks, CDDP control 95%
[3] = Experiment 2: cisplatin-induced weight loss; details: low-dose celecoxib; p<0.05
Experimental: In this study, female A/J mice (4 weeks old) were divided into seven groups: group 1, no treatment; group 2, low-dose celecoxib (150 mg/kg diet); group 3, high-dose celecoxib (1500 mg/kg diet); group 4, 0.1% EGCG+low-dose celecoxib treatment (150 mg/kg diet); group 5, 0.1% EGCG+high-dose celecoxib (1500 mg/kg diet); group 6, 0.17% polyphenon E+low-dose celecoxib (150 mg/kg diet); group 7, 0.17% polyphenon E+high-dose celecoxib (1500 mg/kg diet). All mice were treated with cisplatin (1.62 mg/kg of body weight, i.p.) once a week for 10 weeks from 7 to 16 weeks of age. Mice in groups 2, 3, 4, 5, 6, and 7 were exclusively fed experimental diet prepared by mixing celecoxib. EGCG and polyphenon E were provided in drinking water. Seven groups of mice were killed at 26 weeks after treatment.

[4] = system: cisplatin-induced lung tumors; details: administered as individual compounds; Carcinogenesis 21(5):915, 2000; Proc AACR 44 #4920; cited from earlier work
[5] = celecoxib 150 ppm in diet (low dose), EGCg 0.1% or Polyphenon E 0.17% in drinking water where combined
[6] = celecoxib 1,500 ppm in diet (high dose), EGCg 0.1% or Polyphenon E 0.17% in drinking water where combined
[7] = EGCg 0.1% (wt/vol) in drinking water, no celecoxib

cisplatin-induced weight loss (in words) [3] | Molecule | INCIDENCE [1, 5] | MULTIPLICITY [1, 5] | INCIDENCE [1, 6] | MULTIPLICITY [1, 6] | MULTIPLICITY (number of tumors/mouse, mean±SD in text) ([2]; high-dose celecoxib 1500 mg/kg diet, CDDP control 2.2) [tumors/mouse] | MULTIPLICITY (number of tumors/mouse, mean±SD in text) ([2]; high-dose celecoxib 1500 mg/kg diet, CDDP control 2.2, listed as Celecoxib) [tumors/mouse] | INCIDENCE ([2]; high-dose celecoxib 1500 mg/kg diet) [%] | INCIDENCE ([2]; high-dose celecoxib 1500 mg/kg diet, listed as Celecoxib) [%] | MULTIPLICITY (number of tumors/mouse, mean±SD in text) ([2]; low-dose celecoxib 150 mg/kg diet, CDDP control 2.2) [tumors/mouse] | MULTIPLICITY (number of tumors/mouse, mean±SD in text) ([2]; low-dose celecoxib 150 mg/kg diet, CDDP control 2.2, listed as Celecoxib) [tumors/mouse] | INCIDENCE ([2]; low-dose celecoxib 150 mg/kg diet) [%] | INCIDENCE ([2]; low-dose celecoxib 150 mg/kg diet, listed as Celecoxib) [%] | INCIDENCE [1, 7] | MULTIPLICITY [1, 7] | effect on tumor incidence (in words) ([1]; EGCg alone) | reduction of tumor multiplicity versus control ([1]; EGCg alone) | mice that developed tumors (tumor incidence) ([1]; EGCg alone, control 90%) [%] | inhibition of cisplatin-induced lung tumors (in words) [4]
significantly prevented | Cc1ccc(-c2cc(C(F)(F)F)nn2-c2ccc(S(N)(=O)=O)cc2)cc1 [Cox, celecoxib] | 0.9 | 2.1 | 0.91 | 1.91 | 1.7 | 1.7±1.2 | 85.7 | 85.7 | 2.1 | 2.1±1.3 | 95 | 95 |  |  |  |  |  | 
 | (−)-epigallocatechin gallate [EGCg] |  |  |  |  |  |  |  |  |  |  |  |  | 0.8 | 1.2 | could not significantly reduce tumor incidence | 45% and ~50% | 80 | partially inhibits
